Measurements published in article PMC12858405, “Ideal efficacy photoswitching for chromocontrol of TRPC4/5 channel functions in live tissues” (Nature Chemical Biology, 2026).

Biological target: T1, TRPC4β-SYFP2 (Homo sapiens, UniProt Q9UBN4)
T1 construct: expressed in transfected cells; host or cells: HEK 293 (ATCC CRL 1573), transiently transfected (jetPRIME)
T1 sequence (Q9UBN4 1-893 isoform Q9UBN4-2): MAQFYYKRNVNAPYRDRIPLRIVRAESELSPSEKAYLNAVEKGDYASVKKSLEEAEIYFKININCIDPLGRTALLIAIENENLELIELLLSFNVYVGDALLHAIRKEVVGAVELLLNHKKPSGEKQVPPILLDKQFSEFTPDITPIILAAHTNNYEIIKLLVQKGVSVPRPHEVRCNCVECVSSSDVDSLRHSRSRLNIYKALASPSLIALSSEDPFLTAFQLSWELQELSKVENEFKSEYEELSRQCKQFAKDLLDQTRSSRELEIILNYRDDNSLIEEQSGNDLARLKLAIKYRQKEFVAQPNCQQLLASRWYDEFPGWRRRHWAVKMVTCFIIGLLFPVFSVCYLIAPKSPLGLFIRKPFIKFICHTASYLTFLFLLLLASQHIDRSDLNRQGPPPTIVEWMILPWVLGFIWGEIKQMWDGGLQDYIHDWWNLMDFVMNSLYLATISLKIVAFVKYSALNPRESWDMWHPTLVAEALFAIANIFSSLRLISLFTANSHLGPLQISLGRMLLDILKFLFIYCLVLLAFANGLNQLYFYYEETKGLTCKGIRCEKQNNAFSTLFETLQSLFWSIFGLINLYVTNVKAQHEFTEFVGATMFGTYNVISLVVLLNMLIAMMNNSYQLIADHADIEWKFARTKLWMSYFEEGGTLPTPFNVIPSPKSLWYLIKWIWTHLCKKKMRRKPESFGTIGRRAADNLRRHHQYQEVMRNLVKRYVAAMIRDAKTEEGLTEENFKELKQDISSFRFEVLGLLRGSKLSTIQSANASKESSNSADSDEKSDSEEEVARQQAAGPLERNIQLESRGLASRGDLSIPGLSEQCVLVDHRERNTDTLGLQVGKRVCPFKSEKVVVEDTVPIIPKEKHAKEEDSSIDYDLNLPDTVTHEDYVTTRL
Assay: Fura-2 [Ca2+]i recordings, HEK 293 transiently expressing TRPC4β-SYFP2
Format: cell-based
Settings: AzHC 10-1000 nM, AM237 100 nM
Text: Müller, Niemeyer, et al., Schaefer & Thorn-Seshold 2025: Ideal Efficacy Photoswitching of TRPC4/5 in Tissue […]
1.4.4 Differences and selectivity between TRPC5 and TRPC4?
AM237 activates TRPC5 but inhibits EA mediated activation of TRPC4; Pico145 inhibits both TRPC4 and TRPC5. Thus, somewhat naively, it could be argued that it is the para substituent here which affects both the efficacy mode and the selectivity for TRPC4 and/or TRPC5.
Intriguingly, Z-AzPico activates TRPC4 and TRPC5 with low nanomolar potency whereas Z-AzHC only activates TRPC5 but not TRPC4. Therefore, the meta substituent is now responsible for the selectivity in this case. The cryo-EM structures of Pico145 and HC-070 in complex with TRPC5 indicated the same binding site but the southern phenyl ring bearing the OCF3/Cl group is flipped and pointing in opposite directions.
Z isomers, i.e. Z-buried vs. E-projected. Additionally, both E-AzPico and E-AzHC inhibit EA […]
It is not surprising that both ligands bind to either protein because there is a high sequence similarity among the TRPC family in the identified binding pocket for Pico145 /HC-070, and in the binding region, human TRPC4/5 differ only by a single amino acid (TRPC5: V579, TRPC4: I579). We […]
the result of differences in this residue. […]
Intracellular calcium ([Ca2+]i) was measured using the ratiometric Ca2+ dye Fura-2. […]

SMILES | Effect on [Ca2+]i, TRPC4
Cn1c(=O)n(CCCO)c(=O)c2c1nc(Oc1ccc(Cl)c(OC(F)(F)F)c1)n2Cc1ccc(Cl)cc1 [AM237, reference compound] | do not activate
Cn1c(=O)n(CCCO)c(=O)c2c1nc(Oc1ccc(/N=N\c3ccccc3)c(Cl)c1)n2Cc1ccc(Cl)cc1 [Z*-AzHC] | do not activate
